Test results reported in US20230065158A1, “OXABICYCLOHEPTANES FOR TREATMENT OF SMALL CELL LUNG CANCER” (Lixte Biotechnology, Inc., priority 2021, published 2023).
Entries after “also recorded” stand apart in the source; their conditions may differ.

Tests used:
[1] = tested on: advanced solid tumors; details: cited from earlier work
[2] = tested on: H524 cells; assay: Seahorse XF Cell Energy Phenotype Test; type: cell-based; details: LB100 2.5 μM
Method: FIGS. 5A-5F depict the effect of LB-100 on cell energy phenotype in SCLC cells. FIG. 5A: LB100 treatment (2.5 μM) induced metabolic switch in H524 cells. Cell energy phenotype was obtained by using XF Cell Energy Phenotype Reporter Generator. Empty squares indicate baseline energy phenotype, solid squares represent stressed energy phenotype measured after oligomycin/FCCP injection. FIGS. 5B and 5C: OCR and ECARin control (blue circles) and LB-100 (orange circles) H524 cells were measured overtime. (n=2, six different wells for each […]). FIG. 5D: Effect of LB-100 (10 μM) on H69 cell energy phenotype. FIGS. 5E and 5F: Effect of mitochondrial stressor on OCR and ECAR in H69 cells. Blue circles indicate control and orange circles show LB-100 treatment. (n=2, six technical replicates).
Next, we determined the effect of LB100 on ATP production in SCLC cells employing the Seahorse XF Cell Energy Phenotype Test. […] After drug treatment, we counted the number of cells and examined them for viability using exclusion of trypan blue as a readout. Cellular basal oxygen consumption rate (OCR) and extra-cellular acidification rate (ECAR) measurements were determined on a Seahorse XF96 analyzer. […]

[3] = biological target: T1, PP2A (Homo sapiens, UniProt P67775); assay: PP2A immunoprecipitation Ser/Thr phosphatase activity assay in treated H524 cells; type: cell-based; details: LB-100 5 μM, 24 h, H524 cells
T1 construct: endogenous in cells; host or cells: H524 (human SCLC) cells
T1 sequence (P67775 whole entry): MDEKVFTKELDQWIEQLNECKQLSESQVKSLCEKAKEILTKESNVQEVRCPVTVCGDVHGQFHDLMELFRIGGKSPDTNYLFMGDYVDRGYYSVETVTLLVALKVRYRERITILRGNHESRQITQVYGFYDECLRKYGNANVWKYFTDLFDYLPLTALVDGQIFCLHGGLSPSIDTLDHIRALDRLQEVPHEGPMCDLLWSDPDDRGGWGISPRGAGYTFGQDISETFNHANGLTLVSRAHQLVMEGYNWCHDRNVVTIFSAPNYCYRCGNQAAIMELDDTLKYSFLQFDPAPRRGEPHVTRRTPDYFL
T1 sequence (P30153 whole entry partner): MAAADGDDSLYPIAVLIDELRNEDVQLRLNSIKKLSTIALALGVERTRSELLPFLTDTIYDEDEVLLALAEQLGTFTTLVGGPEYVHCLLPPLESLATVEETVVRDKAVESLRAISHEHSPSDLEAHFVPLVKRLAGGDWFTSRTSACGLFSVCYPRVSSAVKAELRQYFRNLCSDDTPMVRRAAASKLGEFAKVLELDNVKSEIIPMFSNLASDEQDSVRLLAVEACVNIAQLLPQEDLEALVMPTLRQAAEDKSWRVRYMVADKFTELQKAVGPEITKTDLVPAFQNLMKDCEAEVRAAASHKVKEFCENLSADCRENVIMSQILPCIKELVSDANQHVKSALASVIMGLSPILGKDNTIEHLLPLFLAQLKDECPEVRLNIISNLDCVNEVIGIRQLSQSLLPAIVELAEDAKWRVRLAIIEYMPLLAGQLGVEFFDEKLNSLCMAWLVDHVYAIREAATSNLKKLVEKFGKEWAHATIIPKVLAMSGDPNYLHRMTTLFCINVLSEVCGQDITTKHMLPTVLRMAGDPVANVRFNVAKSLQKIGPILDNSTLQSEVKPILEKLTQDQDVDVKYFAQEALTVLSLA
Method: FIGS. 1A-IL depict the effects of LB-100 on PP2A-A expression in SCLC tumors and cells. […] A Mann-Whitney U test was used for comparison between the normal and SCLC samples. FIG. 1B: IHC for PP2A was conducted on TMA tissue sections and images were captured at 4× or 20× using a 3D-Histech PANNORAMIC SCAN whole slide scanner (3D-Histech, Budapest, Hungary). […] TMAs were scored in normal (n=24) and tumor (n=79) cores on a scale from 0 (no staining/no protein expression) to 3+(strong staining/high protein expression). FIG. 1C: Summary bar graph of the average PP2A subunit staining. IHC staining intensity of normal and tumor cores. There was a statistically significant difference between normal and tumor tissue (p<0.001). FIG. 1D: In order to compare the expression of PP2A subunits A and C, cell lysates from seven SCLC cell lines and HBEC 3KT (non-malignant cell line) were subjected to western blotting. FIG. 1E: PP2A activity was determined using a serine/threonine phosphatase activity assay (Millipore) after 24 h exposure to cantharidin (10 μM) and LB-100 (5 μM). […] LB-100 alone or in combination with carboplatin inhibited proliferation and colony formation in SCLC cells. The Cell Counting Kit-8 assay detected cell H524 and H69 cell viability. […] FIGS. 1I-1K: Graphs depict the mean+SEM of percent viability for cells (n=3). […]

Structure (SMILES): C[NH+]1CCN(C(=O)C2C(C(=O)O)[C@H]3CC[C@@H]2O3)CC1 (stereo in doubt) [LB-100, 3-[(4-Methylpiperazin-1-yl)carbonyl]-7-oxabicyclo[2.2.1]heptane-2-carboxylic acid]
- tolerability / adverse events ([1]; Phase I trial): no notable adverse events; also recorded: well tolerated
- patients who achieved stable disease ([1]; Phase I, advanced solid tumors): 10 out of 20
- basal OCR lower compared to untreated cells [2]: 4 fold
- phosphatase activity inhibited to [3]: 65%
